Values joined by “and” are separate entries in the source; they are usually repeats but may differ in a detail not shown here. Equal entries are not always repeated.
Test: molar heat capacity at constant pressure
Details: 101.33 kPa, Small (less than 1 g) adiabatic calorimetry

N[C@@H](Cc1c[nH]c2ccccc12)C(=O)O [L-tryptophan]
molar heat capacity at constant pressure
Details	Crystal	Crystal 1
65.73 K	65.32 J/K/mol	–
66.54 K	65.98 J/K/mol	–
67.34 K	66.53 J/K/mol	–
68.15 K	67.1 J/K/mol	–
68.95 K	67.91 J/K/mol	–
69.75 K	68.59 J/K/mol	–
70 K	68.68 J/K/mol	–
70.56 K	69.1 J/K/mol	–
71.35 K	69.78 J/K/mol	–
72.16 K	70.26 J/K/mol	–
72.96 K	70.81 J/K/mol	–
73.76 K	71.51 J/K/mol	–
74.56 K	72.19 J/K/mol and 72.19 J/K/mol	–
75.36 K	72.76 J/K/mol	–
76.16 K	73.55 J/K/mol and 73.54 J/K/mol	–
76.96 K	74.19 J/K/mol	–
77.76 K	74.88 J/K/mol and 74.88 J/K/mol	–
77.81 K	74.18 J/K/mol	–
77.91 K	74.86 J/K/mol	–
77.92 K	74.32 J/K/mol	–
78.27 K	74.94 J/K/mol	–
78.42 K	75.32 J/K/mol	–
78.45 K	75.01 J/K/mol	–
78.56 K	75.5 J/K/mol	–
78.82 K	75.44 J/K/mol	–
78.84 K	74.99 J/K/mol	–
78.87 K	75.62 J/K/mol	–
79.2 K	75.99 J/K/mol	71.01 J/K/mol
79.22 K	75.33 J/K/mol	–
79.24 K	75.75 J/K/mol	–
79.33 K	76.02 J/K/mol	–
79.36 K	76.16 J/K/mol	–
79.37 K	76.15 J/K/mol	–
79.62 K	–	70.64 J/K/mol
79.64 K	–	70.29 J/K/mol
79.68 K	–	70.63 J/K/mol
80 K	–	71.09 J/K/mol
80.02 K	–	71.26 J/K/mol
80.04 K	–	70.54 J/K/mol
80.14 K	–	70.97 J/K/mol
80.17 K	–	71.35 J/K/mol and 71.35 J/K/mol
80.19 K	–	71.22 J/K/mol
80.41 K	–	71.6 J/K/mol
80.43 K	–	70.98 J/K/mol
80.48 K	–	71.27 J/K/mol
80.81 K	–	72.02 J/K/mol
80.83 K	–	71.17 J/K/mol
80.94 K	–	71.85 J/K/mol
80.98 K	–	72.02 J/K/mol and 72.02 J/K/mol
80.99 K	–	72 J/K/mol
81.21 K	–	72.51 J/K/mol
81.23 K	–	71.92 J/K/mol
81.28 K	–	72.06 J/K/mol
81.61 K	–	72.57 J/K/mol
81.63 K	–	72.55 J/K/mol
81.74 K	–	72.46 J/K/mol
81.79 K	–	72.78 J/K/mol and 72.65 J/K/mol and 72.78 J/K/mol
82 K	–	72.93 J/K/mol
82.02 K	–	72.8 J/K/mol
82.08 K	–	72.96 J/K/mol
82.42 K	–	73.44 J/K/mol
82.55 K	–	73.18 J/K/mol
82.59 K	–	73.58 J/K/mol and 73.47 J/K/mol and 73.58 J/K/mol
82.82 K	–	73.8 J/K/mol
82.88 K	–	73.57 J/K/mol
83.22 K	–	74.06 J/K/mol
83.35 K	–	74 J/K/mol
83.4 K	–	74.08 J/K/mol
83.68 K	–	74.24 J/K/mol
84.15 K	–	74.8 J/K/mol
84.2 K	–	74.77 J/K/mol
84.49 K	–	74.98 J/K/mol
84.95 K	–	75.46 J/K/mol
85 K	–	75.41 J/K/mol
85.29 K	–	75.62 J/K/mol
85.8 K	–	76.16 J/K/mol
86.6 K	–	77.02 J/K/mol
87.4 K	–	77.55 J/K/mol
88.21 K	–	78.21 J/K/mol
89.01 K	–	78.75 J/K/mol
89.81 K	–	79.34 J/K/mol
90 K	–	79.57 J/K/mol
90.61 K	–	80.12 J/K/mol
91.41 K	–	80.65 J/K/mol
92.22 K	–	81.07 J/K/mol
93.02 K	–	81.81 J/K/mol
93.82 K	–	82.48 J/K/mol
94.62 K	–	83.08 J/K/mol
95.43 K	–	83.56 J/K/mol
96.23 K	–	84.06 J/K/mol
97.03 K	–	84.89 J/K/mol
97.83 K	–	85.56 J/K/mol
98.64 K	–	86.05 J/K/mol
99.44 K	–	86.39 J/K/mol
100 K	–	86.89 J/K/mol
100.24 K	–	86.97 J/K/mol
101.04 K	–	87.55 J/K/mol
101.84 K	–	88.13 J/K/mol
102.65 K	–	88.72 J/K/mol
103.45 K	–	89.38 J/K/mol
104.25 K	–	89.71 J/K/mol
105.05 K	–	90.38 J/K/mol
105.85 K	–	91.04 J/K/mol
106.65 K	–	91.46 J/K/mol
107.45 K	–	91.87 J/K/mol
108.25 K	–	92.54 J/K/mol
109.05 K	–	93.12 J/K/mol
109.85 K	–	93.62 J/K/mol
110 K	–	93.7 J/K/mol
110.66 K	–	94.2 J/K/mol
111.46 K	–	94.78 J/K/mol
112.26 K	–	95.2 J/K/mol
113.06 K	–	95.87 J/K/mol
113.86 K	–	96.36 J/K/mol
114.66 K	–	96.61 J/K/mol
115.47 K	–	97.36 J/K/mol
116.27 K	–	97.7 J/K/mol
117.07 K	–	98.61 J/K/mol
117.87 K	–	99.11 J/K/mol
118.67 K	–	99.69 J/K/mol
119.47 K	–	100.27 J/K/mol
120 K	–	100.44 J/K/mol
120.28 K	–	100.85 J/K/mol
121.08 K	–	101.19 J/K/mol
121.88 K	–	101.85 J/K/mol
122.68 K	–	102.27 J/K/mol
123.49 K	–	102.77 J/K/mol

Source: the NIST ThermoML archive (doi:10.1016/j.jct.2016.09.041)
